Laboratory results reported in ChEMBL document CHEMBL1759957, “Synthesis and antibacterial evaluation of novel 8-fluoro Norfloxacin derivatives as potential probes for methicillin and vancomycin-resistant Staphylococcus aureus” (2011).
≈ marks a conversion by molar mass, not a printed value.

Key:
Experiment in all cases: microbe, parasite or virus in culture
Assay type in all cases: functional
Staphylococcus aureus [1] = settings: ATCC 25923, 24 h
Description: Antibacterial activity against methicillin- resistant Staphylococcus aureus ATCC 25923 after 24 hrs by spectrophotometry

Klebsiella pneumoniae = settings: ATCC 27736, 24 h
Description: Antibacterial activity against Klebsiella pneumoniae ATCC 27736 after 24 hrs by spectrophotometry

Staphylococcus aureus [2] = settings: ATCC 29213, 24 h
Description: Antibacterial activity against methicillin- resistant and vancomycin resistant Staphylococcus aureus ATCC 29213 after 24 hrs by spectrophotometry

Compound | MIC (Staphylococcus aureus [1]) [µg/mL] | MIC (Klebsiella pneumoniae) [µg/mL] | MIC (Staphylococcus aureus [2]) [µg/mL]
O=C(O)c1cn(C2CC2)c2cc(N3CCNCC3)c(F)cc2c1=O [CIPROFLOXACIN] | 0.09 (≈ 0.272 µM) | 0.19 (≈ 0.573 µM) | 0.38 (≈ 1.15 µM)
CCn1cc(C(=O)O)c(=O)c2cc(F)c(N3CCNCC3)cc21 [NORFLOXACIN] | 0.78 (≈ 2.44 µM) | 0.39 (≈ 1.22 µM) | 1.56 (≈ 4.89 µM)
